These results are taken from US9708259B2 (Hoffmann-La Roche Inc., priority 2013, dated 2017).

The EC50 is the concentration that produces a half-maximal response.

The target in one assay is T1, ratM1 (Rattus norvegicus, UniProt P08482).
T1 construct: expressed in transfected cells; host or cells: CHO cells (stated generally for the assay, not specifically for rat M1)
T1 sequence (P08482 1-460): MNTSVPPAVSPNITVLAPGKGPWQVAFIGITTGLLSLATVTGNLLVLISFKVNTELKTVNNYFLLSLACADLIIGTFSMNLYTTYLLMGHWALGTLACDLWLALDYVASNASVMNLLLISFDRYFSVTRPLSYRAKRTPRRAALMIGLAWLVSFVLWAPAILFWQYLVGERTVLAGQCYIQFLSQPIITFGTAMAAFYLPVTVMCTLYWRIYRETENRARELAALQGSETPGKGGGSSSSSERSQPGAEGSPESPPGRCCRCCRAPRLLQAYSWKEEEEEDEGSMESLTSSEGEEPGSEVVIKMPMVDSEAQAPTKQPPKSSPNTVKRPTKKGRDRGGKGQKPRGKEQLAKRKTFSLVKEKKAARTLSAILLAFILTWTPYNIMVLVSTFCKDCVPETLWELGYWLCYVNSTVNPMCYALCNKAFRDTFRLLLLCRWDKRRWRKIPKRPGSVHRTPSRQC
Kind of assay: M1 PAM assay (FLIPR intracellular calcium), rat M1. Format: cell-based.

A further assay deals with T2, human M1 (Homo sapiens, UniProt P11229).
T2 construct: expressed in transfected cells; host or cells: CHO cells
T2 sequence (P11229 1-460): T1 sequence (P08482 1-460) with V5A, S254T, S309P, K320R, G337A, V413I
Kind of assay: M1 PAM assay (FLIPR intracellular calcium), human M1. It is filed as cell-based. The protocol: The assay study the effect of several concentrations of test compounds on basal or acetylcholine-stimulated Ca^2+ levels using FLIPR.
CHO human M1 are plated the day before the experiments at 2×10^5 cells/ml in PDL BioCoat 96 well black/clear plate (Becton 35 4640). The cells are grown at 37° C. and 5% CO2 in the following medium: F12 Nut Mix (Gibco 21765), 10% FCS heat inactivated (GIBCO 16000-044), 1% Pen Strep (Gibco,15140) and 200 μg/ml Geneticin (Gibco 11811). On the day of the experiment, the medium was removed and replaced by […] of dye loading buffer containing Hanks Balanced Salt solution (HBSS, 14065-049, Gibco) with 20 mM HEPES (Gibco 15630-056), 2 mM Probenicid (Sigma P8761), […] ester (Molecular Probes F-14202), 10% Pluronic acid Molecular Probes P-3000) pH=7.4 and incubated at 37° C. After 60 minutes extracellular dye was removed and the cells were washed five times with FLIPR buffer containing HBSS (Gibco 14065-049) with 20 mM HEPES (Gibco, 15630-056), 2 mM Probenicid (Sigma P8761) pre-warmed at 37° C. using and Ebml cell washer leaving […] of FLIPR buffer in each well. The cell plate and the diluted compounds (1% DMSO final concentration) are placed on the platform of the FLIPR and the door closed. A signal test to check background fluorescence and basal fluorescence signal is performed. Laser intensity is adjusted if necessary. Two minutes preincubation with the diluted test compounds is provide to determine any agonist activity on the M1 receptor by comparison to 30 nM Acetylcholine control. In order to determine any modulator activity the diluted compounds were added to cells and after two minutes preincubation, the EC20 of acetylcholine is added followed by another two minutes preincubation before the measurement of intracellular Ca^2+ with a FLIPR (Molecular Devices).
In general terms: A change in cytosolic calcium serves as a functional read-out for many receptors and channels.

Where [1] appears, read: rat M1, FLIPR Ca2+, second value of the cell, read-out: ratM1 EC50.
The mark [2] stands for this setting: CHO human M1 cells, FLIPR Ca2+, with EC20 of acetylcholine, first value of the cell, read-out: hM1 EC50.

Substitutions are numbered along the chain they refer to. Where two headings read alike, the source gives them in different places.

As for `Cn1cc(-c2ccc(Cn3cc(C(=O)N[C@H]4CCOC[C@@H]4O)c4c(F)cccc43)c(F)c2)cn1` (mixture of isomers) [Example 6, 4-fluoro-1-(2-fluoro-4-(1-methyl-1H-pyrazol-4-yl)benzyl)-N-((3R,4RS)-3-hydroxytetrahydro-2H-pyran-4-yl)-1H-indole-3-carboxamide], the results for the 50% effective concentration (EC50) at ratM1 (setting [1]) and on human M1 (setting [2]) were 147 nM and 70 nM, respectively. Turning to `Cn1cc(-c2ccc(Cn3nc(C(=O)N[C@H]4CCOC[C@@H]4O)c4c(F)cccc43)c(F)c2)cn1` (racemic) [Example 7, 4-fluoro-1-(2-fluoro-4-(1-methyl-1H-pyrazol-4-yl)benzyl)-N-((3RS,4SR)-3-hydroxytetrahydro-2H-pyran-4-yl)-1H-indazole-3-carboxamide], the EC50 is 147 nM on ratM1 (setting [1]) and 70 nM at human M1 (setting [2]). Consider `NC(=O)c1ccc(Cn2cc(C(=O)N[C@H]3CCOC[C@@H]3O)c3c(F)cccc32)cc1` (racemic) [Example 15, 1-(4-carbamoylbenzyl)-4-fluoro-N-((3RS,4SR)-3-hydroxytetrahydro-2H-pyran-4-yl)-1H-indole-3-carboxamide], for which the EC50 worked out at 9.61 nM at ratM1 (setting [1]) and 12.4 nM at human M1 (setting [2]). As for `N#Cc1ccc(Cn2cc(C(=O)N[C@H]3CCOC[C@@H]3O)c3c(F)cccc32)cc1` (racemic) [Example 16, 1-(4-cyanobenzyl)-4-fluoro-N-((3RS,4SR)-3-hydroxytetrahydro-2H-pyran-4-yl)-1H-indole-3-carboxamide], the EC50 on ratM1 came to 337 nM; at human M1, 237 nM. For the compound `Cn1cc(-c2ccc(Cn3cc(C(=O)NC4CCCCC4(F)F)c4c(F)cccc43)c(F)c2)cn1` (stereo not drawn) [Example 25, N-(2,2-difluorocyclohexyl)-4-fluoro-1-(2-fluoro-4-(1-methyl-1H-pyrazol-4-yl)benzyl)-1H-indole-3-carboxamide], at human M1 (setting [2]), the EC50 turned out to be 359 nM. `COc1ccc(Cn2cc(C(=O)N[C@H]3CCCC[C@@H]3O)c3c(F)cccc32)c(F)c1` [Example 28, 4-fluoro-1-(2-fluoro-4-methoxybenzyl)-N-((1S,2S)-2-hydroxycyclohexyl)-1H-indole-3-carboxamide]: at human M1, the concentration for a half-maximal effect (EC50) turned out to be 272 nM.

With `O=C(N[C@H]1CCCC[C@@H]1O)c1cn(Cc2ccc(OC(F)F)cc2)c2cccc(F)c12` [Example 29, 1-(4-(difluoromethoxy)benzyl)-4-fluoro-N-((1S,2S)-2-hydroxycyclohexyl)-1H-indole-3-carboxamide], the EC50 at human M1 came out at 226 nM. On the same count and under the same terms, then `O=C(N[C@H]1CCCC[C@@H]1O)c1cn(Cc2ccc(OC(F)(F)F)cc2)c2cccc(F)c12` [Example 34, 4-fluoro-N-((1S,2S)-2-hydroxycyclohexyl)-1-(4-(trifluoromethoxy)benzyl)-1H-indole-3-carboxamide], with 342 nM.

Turning to `Cn1cc(-c2cccc(Cn3cc(C(=O)N[C@H]4CCCC[C@@H]4O)c4c(F)cccc43)c2)cn1` [Example 35, 4-fluoro-N-((1S,2S)-2-hydroxycyclohexyl)-1-(3-(1-methyl-1H-pyrazol-4-yl)benzyl)-1H-indole-3-carboxamide], the EC50 at human M1 (setting [2]) turned out to be 226 nM.

For `O=C(N[C@H]1CCCC[C@@H]1O)c1cn(Cc2cccc(Cl)c2)c2cccc(F)c12` [Example 39, 1-(3-chlorobenzyl)-4-fluoro-N-((1S,2S)-2-hydroxycyclohexyl)-1H-indole-3-carboxamide], the EC50 at human M1 turned out to be 205 nM. The same measure, in the same setting: then `N#Cc1cccc(Cn2cc(C(=O)N[C@H]3CCCC[C@@H]3O)c3c(F)cccc32)c1` [Example 40, 1-(3-cyanobenzyl)-4-fluoro-N-((1S,2S)-2-hydroxycyclohexyl)-1H-indole-3-carboxamide], with 476 nM. Turning to `Cn1cc(-c2ccc(Cn3cc(C(=O)N[C@H]4CCCC[C@@H]4O)c4c(F)c(F)ccc43)cc2)cn1` [Example 57, 4,5-difluoro-N-((1S,2S)-2-hydroxycyclohexyl)-1-(4-(1-methyl-1H-pyrazol-4-yl)benzyl)-1H-indole-3-carboxamide], the EC50 at human M1 (setting [2]) turned out to be 139 nM. On the same count and under the same terms, as for `Cn1cc(-c2ccc(Cn3nc(C(=O)NC4CCOCC4)c4c(F)cccc43)cc2)cn1` [Example 69, 4-fluoro-1-(4-(1-methyl-1H-pyrazol-4-yl)benzyl)-N-(tetrahydro-2H-pyran-4-yl)-1H-indazole-3-carboxamide], the figure is 344 nM; as for `NC(=O)c1cccc(Cn2cc(C(=O)N[C@H]3CCCC[C@@H]3O)c3c(F)cccc32)c1` [Example 81, 1-(3-carbamoylbenzyl)-4-fluoro-N-((1S,2S)-2-hydroxycyclohexyl)-1H-indole-3-carboxamide], 351 nM; as for `CS(=O)(=O)c1ccc(Cn2cc(C(=O)N[C@H]3CCCC[C@@H]3O)c3c(F)cccc32)cc1` [Example 82, 4-fluoro-N-((1S,2S)-2-hydroxycyclohexyl)-1-(4-(methylsulfonyl)benzyl)-1H-indole-3-carboxamide], 435 nM. Same read-out and setting: as for `CCOC(=O)Nc1ccc(Cn2cc(C(=O)N[C@H]3CCCC[C@@H]3O)c3c(F)cccc32)cc1` [Example 85, ethyl 4-((4-fluoro-3-((1S,2S)-2-hydroxycyclohexylcarbamoyl)-1H-indol-1-yl)methyl)phenylcarbamate], the figure is 42.9 nM.

For `CNC(=O)c1cccc(Cn2cc(C(=O)N[C@H]3CCCC[C@@H]3O)c3c(F)cccc32)c1` [Example 89, 4-fluoro-N-((1S,2S)-2-hydroxycyclohexyl)-1-(3-(methylcarbamoyl)benzyl)-1H-indole-3-carboxamide], on human M1 (setting [2]), the EC50 was 319 nM. On the same count and under the same terms, then `CN(C)C(=O)c1cccc(Cn2cc(C(=O)N[C@H]3CCCC[C@@H]3O)c3c(F)cccc32)c1` [Example 90, 1-(3-(dimethylcarbamoyl)benzyl)-4-fluoro-N-((1S,2S)-2-hydroxycyclohexyl)-1H-indole-3-carboxamide], with 341 nM; and `O=C(N[C@H]1CCCC[C@@H]1O)c1cn(CC2CCN(c3ccccn3)CC2)c2cccc(F)c12` [Example 160, 4-Fluoro-N-((1S,2S)-2-hydroxycyclohexyl)-1-((1-(pyridin-2-yl)piperidin-4-yl)methyl)-1H-indole-3-carboxamide], with 196 nM; and `CNC(=O)c1ccc(Cn2cc(C(=O)NC3CCCCC3(F)F)c3c(F)cccc32)cc1F` (stereo not drawn) [Example 165, N-(2,2-difluorocyclohexyl)-4-fluoro-1-(3-fluoro-4-(methy7lcarbamoyl)benzyl)-1H-indole-3-carboxamide], with 43 nM.

For `CNC(=O)c1ccc(Cn2cc(C(=O)NC3CCOC(C)(C)C3)c3c(F)cccc32)cc1F` (stereo not drawn) [Example 166, N-(2,2-dimethyltetrahydro-2H-pyran-4-yl)-4-fluoro-1-(3-fluoro-4-(methylcarbamoyl)benzyl)-1H-indole-3-carboxamide], at human M1 (setting [2]), the EC50 amounted to 35 nM.

Regarding `CNC(=O)c1ccc(Cn2cc(C(=O)NC3CCSCC3)c3c(F)cccc32)cc1F` [Example 167, 4-fluoro-1-(3-fluoro-4-(methylcarbamoyl)benzyl)-N-(tetrahydro-2H-thiopyran-4-yl)-1H-indole-3-carboxamide], on human M1 (setting [2]), the EC50 came out at 47 nM. The same measure, in the same setting: then `CNC(=O)c1ccc(Cn2cc(C(=O)NC3CCOCC3C)c3c(F)cccc32)cc1F` (stereo not drawn) [Example 168, 4-fluoro-1-(3-fluoro-4-(methylcarbamoyl)benzyl)-N-(3-methyltetrahydro-2H-pyran-4-yl)-1H-indole-3-carboxamide], with 97 nM.
